The values that follow are results of earlier work, collected in patent US11376263B2, “Cyproterone acetate compositions and uses thereof” (FORTRESS BIOTECH, INC., priority 2020, dated 2022).

For series [1] the following is noted: daily administration.

For the compound `CC(=O)O[C@]1(C(C)=O)CC[C@H]2[C@@H]3C=C(Cl)C4=CC(=O)[C@@H]5C[C@@H]5[C@]4(C)[C@H]3CC[C@@]21C` [CPA, cyproterone acetate], in series [1], the “time to CPA steady state” value is on record as “approximately 16 days”. Consider `C#C[C@]1(O)CC[C@H]2[C@@H]3CCc4cc(O)ccc4[C@H]3CC[C@@]21C` [EE, ethinylestradiol], for which the “AUC and Cmax in obese women versus normal weight women” value (obese vs normal weight women) is listed as “lower”. Further, the mean oral bioavailability entry (oral, large inter- and intraindividual variability) is listed as “approximately 45%”.
